Consider 1 compound from ChEMBL document CHEMBL4823254, “Tetrahydroquinoline-Capped Histone Deacetylase 6 Inhibitor SW-101 Ameliorates Pathological Phenotypes in a Charcot-Marie-Tooth Type 2A Mouse Model” (J Med Chem, 2021).

Activity calls are given as the source filed them. No cut-off for these calls is given here.

The test system of data set [1] is Mus musculus. Put plainly: Neuroprotective activity in hMFN2-induced CMT2A transgenic mouse model assessed as assessed as latency to fall at 20 mg/kg, ip qd administered for 26 weeks when treated prior with compound dissolved in PBS/PEG400/Tween80/EtOH (50/35/10/5) wt% as vehicle by rotarod test. The class given is functional, organism-based. A general note: Falling from the rotarod earlier than controls is read as motor impairment.

The nature of data set [2]: Stability in CD1 mouse pooled liver microsomes assessed as parent compound remaining measured at 60 mins in presence of NADPH by LC-MS/MS analysis. The following applies: CD1, mouse, pooled liver microsomes, read-out: Stabilty. It counts as ADME, Microsome. For orientation: Liver microsomes are a subcellular fraction often used to study metabolism.
Data set [3] deals with T1, Protein deacetylase HDAC6 (Mus musculus) (UniProt Q9Z2V5).
T1 sequence (whole entry): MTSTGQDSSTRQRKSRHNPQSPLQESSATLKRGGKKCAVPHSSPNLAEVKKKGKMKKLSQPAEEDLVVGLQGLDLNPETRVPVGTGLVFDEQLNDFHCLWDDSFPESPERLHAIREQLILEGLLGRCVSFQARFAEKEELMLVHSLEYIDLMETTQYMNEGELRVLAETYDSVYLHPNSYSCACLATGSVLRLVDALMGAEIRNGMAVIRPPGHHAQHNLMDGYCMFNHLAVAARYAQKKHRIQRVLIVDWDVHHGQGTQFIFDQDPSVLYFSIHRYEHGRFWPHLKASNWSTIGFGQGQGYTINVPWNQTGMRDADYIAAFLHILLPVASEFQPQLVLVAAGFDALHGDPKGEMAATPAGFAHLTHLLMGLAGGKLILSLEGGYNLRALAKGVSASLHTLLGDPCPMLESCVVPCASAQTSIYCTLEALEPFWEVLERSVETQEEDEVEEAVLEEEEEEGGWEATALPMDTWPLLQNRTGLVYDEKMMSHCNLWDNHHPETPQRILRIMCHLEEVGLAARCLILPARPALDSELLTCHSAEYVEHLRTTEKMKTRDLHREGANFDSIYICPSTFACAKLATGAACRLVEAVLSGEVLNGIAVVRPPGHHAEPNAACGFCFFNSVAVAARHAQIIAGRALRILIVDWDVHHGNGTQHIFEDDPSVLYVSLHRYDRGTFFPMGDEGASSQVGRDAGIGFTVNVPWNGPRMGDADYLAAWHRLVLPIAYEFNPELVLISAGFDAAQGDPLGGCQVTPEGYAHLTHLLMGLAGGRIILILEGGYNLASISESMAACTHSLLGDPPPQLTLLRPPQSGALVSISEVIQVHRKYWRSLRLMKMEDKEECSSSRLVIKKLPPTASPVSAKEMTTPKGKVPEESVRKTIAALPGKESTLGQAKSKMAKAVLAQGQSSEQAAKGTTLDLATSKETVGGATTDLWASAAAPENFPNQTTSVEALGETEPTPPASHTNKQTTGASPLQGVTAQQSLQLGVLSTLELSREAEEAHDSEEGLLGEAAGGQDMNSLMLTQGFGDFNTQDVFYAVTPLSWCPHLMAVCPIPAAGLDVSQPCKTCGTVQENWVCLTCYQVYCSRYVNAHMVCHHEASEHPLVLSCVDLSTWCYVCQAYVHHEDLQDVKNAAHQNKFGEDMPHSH
Put plainly: In vivo inhibition of HDAC6 in hMFN2-induced CMT2A transgenic mouse model assessed as increase in acetylated tubulin in distal sciatic nerve tissue at 20 mg/kg, ip qd administered for 12 weeks followed by treatment with compound dissolved in PBS/PEG400/Tween80/EtOH (50/35/10/5) wt% as vehicle by Western blot analysis. It counts as functional, organism-based. (In western blotting, separated proteins are transferred to a membrane and probed.)

Another data set concerns the target Histone deacetylase 9 (Homo sapiens, UniProt Q9UKV0). Put plainly: Inhibition of recombinant human HDAC9 using Boc-Lys(TFA)-AMC as substrate preincubated for 10 mins followed by substrate addition and measured after 30 mins by fluorescence-based assay.
Data set [4] is described as follows: Tmax in C57BL/6J mouse plasma at 15 mg/kg, ip. It counts as ADME, organism-based.
Data set [5] concerns the target T1, Protein deacetylase HDAC6 (Mus musculus). Put plainly: In vivo inhibition of HDAC6 in wild type mouse assessed as increase in alpha-tubulin acetylation in sciatic nerve tissue at 10 to 20 mg/kg, ip measured after 48 hrs by immunoblot analysis. The following applies: dose 10-20 mg/kg. The class given is functional, organism-based.
The nature of data set [6]: Half life in C57BL/6J mouse brain at 15 mg/kg, ip. The class given is ADME, organism-based.
The nature of data set [7]: Unbound AUC (0 to infinity) in C57BL/6J mouse plasma at 15 mg/kg, ip. The class given is ADME, organism-based. The following applies: in vivo.
The nature of data set [8]: Stability in human pooled liver microsomes assessed as parent compound remaining measured at 60 mins in presence of NADPH by LC-MS/MS analysis. The class given is ADME, Microsome. As to conditions: pooled liver microsomes, read-out: Stabilty.
Another data set has as its target Histone deacetylase 2 (Homo sapiens, UniProt Q92769). Put plainly: Inhibition of recombinant human HDAC2 using Ac-GAK(Ac)-AMC as substrate preincubated for 10 mins followed by substrate addition and measured after 30 mins by fluorescence-based assay.
Data set [9] concerns Mus musculus. Put plainly: Neuroprotective activity in hMFN2-induced CMT2A transgenic mouse model assessed as increase in motor performance at 20 mg/kg, ip qd administered for 26 weeks when treated prior with compound dissolved in PBS/PEG400/Tween80/EtOH (50/35/10/5) wt% as vehicle by rotarod test. It counts as functional, organism-based.
In data set [10] the target is T1, Protein deacetylase HDAC6 (Mus musculus). Put plainly: In vivo inhibition of HDAC6 in wild type mouse assessed as increase in alpha-tubulin acetylation in sciatic nerve tissue at 10 to 20 mg/kg, ip measured after 24 hrs by immunoblot analysis. The class given is functional, organism-based. As to conditions: dose 10-20 mg/kg.
For data set [11], the system named is Mus musculus. Put plainly: Neuroprotective activity in hMFN2-induced CMT2A transgenic mouse model assessed as increase in motor performance at 20 mg/kg, ip qd by rotarod test. The class given is functional, organism-based.
A short description of data set [12]: Half life in CD1 mouse pooled liver microsomes assessed as parent compound remaining measured up to 60 mins in presence of NADPH by LC-MS/MS analysis. It counts as ADME, Microsome. As to conditions: CD1, mouse, pooled liver microsomes.
For another data set, the target named is Histone deacetylase 4 (Homo sapiens, UniProt P56524). Put plainly: Inhibition of recombinant human HDAC4 using Boc-Lys(TFA)-AMC as substrate preincubated for 10 mins followed by substrate addition and measured after 30 mins by fluorescence-based assay.
Histone deacetylase 4, sequence (P56524 whole entry): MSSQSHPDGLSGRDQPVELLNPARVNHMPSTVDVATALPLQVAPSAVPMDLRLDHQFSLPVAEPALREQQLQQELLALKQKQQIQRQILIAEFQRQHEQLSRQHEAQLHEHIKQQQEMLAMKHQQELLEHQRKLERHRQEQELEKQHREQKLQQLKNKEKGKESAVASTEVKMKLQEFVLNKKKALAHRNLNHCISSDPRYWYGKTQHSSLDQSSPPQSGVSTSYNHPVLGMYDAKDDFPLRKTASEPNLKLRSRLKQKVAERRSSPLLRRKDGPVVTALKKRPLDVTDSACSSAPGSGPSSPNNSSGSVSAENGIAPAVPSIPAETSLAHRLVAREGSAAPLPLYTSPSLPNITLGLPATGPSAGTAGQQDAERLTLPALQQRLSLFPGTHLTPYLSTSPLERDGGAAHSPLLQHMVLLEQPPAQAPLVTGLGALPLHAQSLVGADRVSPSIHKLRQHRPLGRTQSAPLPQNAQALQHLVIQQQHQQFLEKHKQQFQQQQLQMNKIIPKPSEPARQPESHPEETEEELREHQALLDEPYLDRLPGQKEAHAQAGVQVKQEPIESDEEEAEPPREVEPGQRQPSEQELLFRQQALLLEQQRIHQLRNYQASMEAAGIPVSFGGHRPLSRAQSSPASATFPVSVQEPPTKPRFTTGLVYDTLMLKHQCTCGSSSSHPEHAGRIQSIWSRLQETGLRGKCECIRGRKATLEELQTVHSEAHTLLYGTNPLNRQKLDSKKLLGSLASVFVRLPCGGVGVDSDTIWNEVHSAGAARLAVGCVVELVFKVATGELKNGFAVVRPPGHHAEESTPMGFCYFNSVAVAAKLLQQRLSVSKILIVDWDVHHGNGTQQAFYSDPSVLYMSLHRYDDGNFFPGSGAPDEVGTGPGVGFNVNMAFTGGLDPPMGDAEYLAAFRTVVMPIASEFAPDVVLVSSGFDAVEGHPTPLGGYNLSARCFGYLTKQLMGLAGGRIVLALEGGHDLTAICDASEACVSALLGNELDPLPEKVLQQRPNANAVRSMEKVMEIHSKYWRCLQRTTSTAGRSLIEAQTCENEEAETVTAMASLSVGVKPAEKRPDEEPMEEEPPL
Data set [13] is described as follows: Half life in human liver s9 fraction. The class given is ADME, subcellular.
The nature of data set [14]: Protein binding in human plasma. The following applies: read-out: PPB (converted). It counts as ADME, cell-free.
The nature of data set [15]: Genotoxicity in Salmonella typhimurium TA98 at 5 to 100 uM in absence of liver S9 fraction by Ames test. The class given is toxicity. The following applies: salmonella enterica subsp. enterica serovar typhimurium, s9, 100 µM; dose 5-100 µM.
The next data set concerns the target Histone deacetylase 1 (Homo sapiens, UniProt Q13547).
Data set [16] is described as follows: Half life in human plasma. It counts as ADME, cell-free.
The nature of data set [17]: Protein binding in mouse plasma. As to conditions: read-out: PPB (converted). It counts as ADME, cell-free.
Data set [18] is described as follows: Half life in mouse plasma. It counts as ADME, cell-free.
Data set [19] is described as follows: Genotoxicity in Salmonella typhimurium TA100 at 5 to 100 uM in presence of liver S9 fraction by Ames test. The class given is toxicity. The following applies: salmonella enterica subsp. enterica serovar typhimurium, s9, 100 µM; dose 5-100 µM.
Data set [20] relates to Mus musculus. Put plainly: Neuroprotective activity in hMFN2-induced CMT2A transgenic mouse model assessed as increase in paw withdrawal latency at 20 mg/kg, ip qd administered when treated prior with compound dissolved in PBS/PEG400/Tween80/EtOH (50/35/10/5) wt% as vehicle by von Frey test. It counts as functional, organism-based.

Histone deacetylase 1, sequence (Q13547 whole entry): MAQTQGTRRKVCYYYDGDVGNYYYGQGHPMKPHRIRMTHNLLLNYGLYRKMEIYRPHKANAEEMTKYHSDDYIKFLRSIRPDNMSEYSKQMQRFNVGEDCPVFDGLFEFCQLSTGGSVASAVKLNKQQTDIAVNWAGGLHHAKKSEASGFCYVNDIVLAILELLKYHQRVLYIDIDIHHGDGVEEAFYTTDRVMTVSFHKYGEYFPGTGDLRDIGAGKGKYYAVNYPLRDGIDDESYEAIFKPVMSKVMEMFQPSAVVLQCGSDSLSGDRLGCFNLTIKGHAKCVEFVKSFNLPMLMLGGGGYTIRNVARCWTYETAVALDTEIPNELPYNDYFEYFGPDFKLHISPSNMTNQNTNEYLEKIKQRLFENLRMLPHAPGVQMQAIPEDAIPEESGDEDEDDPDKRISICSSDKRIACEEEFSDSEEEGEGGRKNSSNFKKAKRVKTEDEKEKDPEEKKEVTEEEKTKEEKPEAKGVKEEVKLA
Histone deacetylase 9, sequence (Q9UKV0 whole entry): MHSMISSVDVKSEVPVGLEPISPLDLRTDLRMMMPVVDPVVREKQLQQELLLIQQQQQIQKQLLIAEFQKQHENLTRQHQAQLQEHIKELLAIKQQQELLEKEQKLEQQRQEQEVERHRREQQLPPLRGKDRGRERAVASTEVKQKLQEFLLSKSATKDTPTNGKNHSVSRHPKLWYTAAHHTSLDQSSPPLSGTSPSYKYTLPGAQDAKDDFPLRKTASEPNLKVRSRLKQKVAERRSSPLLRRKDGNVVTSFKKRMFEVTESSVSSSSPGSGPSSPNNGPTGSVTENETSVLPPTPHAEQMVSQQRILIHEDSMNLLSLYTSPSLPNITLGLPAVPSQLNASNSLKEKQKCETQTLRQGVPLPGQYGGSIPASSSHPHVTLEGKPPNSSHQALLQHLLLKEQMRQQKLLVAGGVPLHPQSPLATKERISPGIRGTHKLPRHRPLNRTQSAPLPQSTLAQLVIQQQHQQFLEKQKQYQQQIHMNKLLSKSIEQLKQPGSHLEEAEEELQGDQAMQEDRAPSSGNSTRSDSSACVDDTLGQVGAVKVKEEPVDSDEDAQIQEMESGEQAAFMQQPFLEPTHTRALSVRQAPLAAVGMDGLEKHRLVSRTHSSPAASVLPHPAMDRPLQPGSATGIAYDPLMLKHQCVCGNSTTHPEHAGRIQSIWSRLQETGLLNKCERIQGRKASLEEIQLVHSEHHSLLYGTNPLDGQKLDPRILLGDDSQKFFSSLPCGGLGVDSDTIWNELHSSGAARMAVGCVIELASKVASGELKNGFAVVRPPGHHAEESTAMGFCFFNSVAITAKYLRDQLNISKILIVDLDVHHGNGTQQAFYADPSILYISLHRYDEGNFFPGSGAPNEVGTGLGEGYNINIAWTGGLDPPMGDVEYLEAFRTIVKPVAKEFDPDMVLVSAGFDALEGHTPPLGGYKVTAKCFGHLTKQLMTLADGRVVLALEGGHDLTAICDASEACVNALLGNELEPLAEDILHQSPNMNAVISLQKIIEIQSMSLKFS
Histone deacetylase 2, sequence (Q92769 whole entry): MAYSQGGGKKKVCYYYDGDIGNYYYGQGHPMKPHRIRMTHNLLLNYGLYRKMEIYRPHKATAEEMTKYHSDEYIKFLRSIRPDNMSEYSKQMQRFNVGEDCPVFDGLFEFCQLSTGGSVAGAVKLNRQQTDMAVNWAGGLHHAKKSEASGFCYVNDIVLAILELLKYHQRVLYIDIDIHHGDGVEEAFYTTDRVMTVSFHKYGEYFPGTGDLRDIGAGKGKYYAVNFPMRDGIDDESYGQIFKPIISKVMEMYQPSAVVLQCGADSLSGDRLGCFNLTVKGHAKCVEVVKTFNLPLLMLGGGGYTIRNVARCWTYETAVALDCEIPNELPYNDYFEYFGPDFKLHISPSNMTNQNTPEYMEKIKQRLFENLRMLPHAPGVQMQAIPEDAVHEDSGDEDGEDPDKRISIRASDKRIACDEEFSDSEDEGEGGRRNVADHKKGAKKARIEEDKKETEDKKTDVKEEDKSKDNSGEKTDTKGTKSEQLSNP
Description for Histone deacetylase 1: Inhibition of Nanoluc-fused HDAC1 (unknown origin) expressed in HEK293 cells incubated for 2 hrs by NANOBRET assay

Broadly, the IC50 is the concentration that gives 50% inhibition. Usually Tmax stands for the time from dosing to the highest level. One may read the half-life as how long it takes for the measured level to halve. Take `NC(=O)c1ccc2c(c1)CCCN2Cc1ccc(C(=O)NO)cc1`: the outcome in the data set with Mus musculus [1], with Mus musculus [9], in the data set with Mus musculus [11] and with Mus musculus [20] was Active. Besides, the remaining at 1 h was 56% in data set [2] and 76.3% in [8]. The inhibition result in data set [3] and in data set [10] was “Active” throughout. For the same compound, the half-maximal inhibitory concentration (IC50) at Histone deacetylase 9 turned out to be 650 nM; at Histone deacetylase 2 it was 140 nM; on Histone deacetylase 4, 454 nM; against Histone deacetylase 1, 4830 nM. In [4], the Tmax amounted to 4.8 min. Further, the inhibition result in data set [5] is “inactive”. The half-life in data set [6] is 2.9 h; in [12] it was 1.48 h; in data set [13] it was over 16.7 h; in data set [16], over 6.67 h; in [18], 2.12 h. In data set [7], this compound returned a fAUC of 421 ng·h/mL. The fraction unbound in data set [14] is 0.142; in data set [17], 0.241. In addition, the Activity result in data set [15] and in data set [19] was “Non-Toxic” each time.
